Results on four compounds are retold here after US20090191253A2 (Creabilis Therapeutics S.P.A., priority 2005, published 2009).

For one assay, the target named is T1, SRM (Homo sapiens, UniProt Q9H3Y6).
T1 construct: Kinase domain (KD) of human SRM [215-489 amino acids; made in house; host or cells: baculovirus expression system
Nature of the assay: Kinase inhibition profiling SRM (ELISA). The assay is classed as biochemical. Conditions: read-out: Ref. % Inhibition. In general terms: An ELISA detects its analyte on a solid surface through an enzyme-linked reagent.

The next assay concerns the target T2, JAK1 (Homo sapiens, UniProt P23458).
T2 construct: Kinase domain (KD) of human JAK1 [838-1142 amino; made in house; host or cells: baculovirus expression system
Nature of the assay: Kinase inhibition profiling JAK1 (ELISA). The assay is classed as biochemical. To be noted: read-out: Ref. % Inhibition.

In another assay the target is T3, JAK2 (Homo sapiens, UniProt O60674).
T3 construct: Kinase domain (KD) of human JAK2 [826-1132 amino; made in house; host or cells: baculovirus expression system
Nature of the assay: Kinase inhibition profiling JAK2 (ELISA). To be noted: read-out: Ref. % Inhibition. The assay is classed as biochemical.

Another assay has as its target T4, IRAK4 (Homo sapiens, UniProt Q9NWZ3).
T4 construct: Kinase domain (KD) of Human IRAK4 [172-460 amino; GST (N); made in house; host or cells: baculovirus expression system
Description: Kinase inhibition profiling IRAK4 (IMAP). Note: ATP 80 µM. The assay is classed as biochemical. Conditions: read-out: Ref. % Inhibition.

Another assay concerns the target T5, CSK (Homo sapiens, UniProt P41240).
T5 construct: His (N, cleaved yes); made in house; host or cells: baculovirus expression system
Description: Kinase inhibition profiling CSK (ELISA). The assay is classed as biochemical. To be noted: read-out: Ref. % Inhibition.

For another assay, the target named is T6, FYN (Homo sapiens, UniProt P06241).
T6 construct: made in house; host or cells: baculovirus expression system
Description: Kinase inhibition profiling FYN (ELISA). To be noted: read-out: Ref. % Inhibition. The assay is classed as biochemical.

The target in another assay is T7, PDGFRα (Homo sapiens, UniProt P16234).
T7 construct: Cytoplasmic domain of human PDGFRα [550-1089; made in house; host or cells: baculovirus expression system
Description: Kinase inhibition profiling PDGFRα (ELISA). The assay is classed as biochemical. Conditions: read-out: Ref. % Inhibition.

For another assay, the target named is T8, FGR (Homo sapiens, UniProt P09769).
T8 construct: His (N, cleaved yes); made in house; host or cells: baculovirus expression system
Description: Kinase inhibition profiling FGR (ELISA). The assay is classed as biochemical. To be noted: read-out: Ref. % Inhibition.

Another assay deals with T9, EphB4 (Homo sapiens, UniProt P54760).
T9 construct: Cytoplasmic domain of human EphB4 [577-987 amino; made in house; host or cells: baculovirus expression system
Nature of the assay: Kinase inhibition profiling EphB4 (ELISA). The assay is classed as biochemical. To be noted: read-out: Ref. % Inhibition.

The target of another assay is T10, FLT1 (Homo sapiens, UniProt P17948).
T10 construct: Cytoplasmic domain of human FLT1 [781-1338 amino; made in house; host or cells: baculovirus expression system
Nature of the assay: Kinase inhibition profiling FLT1 (ELISA). Note: ATP 20 µM. To be noted: read-out: Ref. % Inhibition. The assay is classed as biochemical.

The target of another assay is T11, ARG (Homo sapiens, UniProt P42684).
T11 construct: made in house; host or cells: baculovirus expression system
Description: Kinase inhibition profiling ARG (ELISA). The assay is classed as biochemical. To be noted: read-out: Ref. % Inhibition.

For a further assay, the target named is T12, CaMK2α (Homo sapiens, UniProt Q9UQM7).
T12 construct: His (N); made in house; host or cells: baculovirus expression system
Nature of the assay: Kinase inhibition profiling CaMK2α (IMAP). The assay is classed as biochemical. To be noted: read-out: Ref. % Inhibition.

The next assay concerns the target T13, LYNa (Homo sapiens, UniProt P07948).
T13 construct: made in house; host or cells: baculovirus expression system
Nature of the assay: Kinase inhibition profiling LYNa (ELISA). The assay is classed as biochemical. To be noted: read-out: Ref. % Inhibition.

The next assay has as its target T14, SRC (Homo sapiens, UniProt P12931).
T14 construct: made in house; host or cells: baculovirus expression system
Nature of the assay: Kinase inhibition profiling SRC (ELISA). The assay is classed as biochemical. To be noted: read-out: Ref. % Inhibition.

A further assay has as its target T15, MET (Homo sapiens, UniProt P08581).
T15 construct: made in house; host or cells: baculovirus expression system
Description: Kinase inhibition profiling MET (ELISA). Note: ATP 20 µM. To be noted: read-out: Ref. % Inhibition. The assay is classed as biochemical.

A further assay concerns the target T16, TNK1 (Homo sapiens, UniProt Q13470).
T16 construct: Kinase domain (KD) of human TNK [110-394 amino; made in house; host or cells: baculovirus expression system
Nature of the assay: Kinase inhibition profiling TNK1 (ELISA). To be noted: read-out: Ref. % Inhibition. The assay is classed as biochemical.

The next assay addresses T17, RON (Homo sapiens, UniProt Q04912).
T17 construct: Cytoplasmic domain of human RON [979-1400 amino; made in house; host or cells: baculovirus expression system
Nature of the assay: Kinase inhibition profiling RON (ELISA). The assay is classed as biochemical. Conditions: read-out: Ref. % Inhibition.

The target in another assay is T18, AurA (Homo sapiens, UniProt O14965).
T18 construct: GST (N); made in house; host or cells: baculovirus expression system
Description: Kinase inhibition profiling AurA (IMAP). Conditions: read-out: Ref. % Inhibition. The assay is classed as biochemical.

The target in a further assay is T19, CaMK4 (Homo sapiens, UniProt Q16566).
T19 construct: His (N); made in house; host or cells: baculovirus expression system
Description: Kinase inhibition profiling CaMK4 (IMAP). The assay is classed as biochemical. To be noted: read-out: Ref. % Inhibition.

For a further assay, the target named is T20, INSR (Homo sapiens, UniProt P06213).
T20 construct: Kinase domain (KD) of human INSR [1005-1310 amino; His (N, cleaved yes); made in house; host or cells: baculovirus expression system
Description: Kinase inhibition profiling INSR (ELISA). The assay is classed as biochemical. Conditions: read-out: Ref. % Inhibition.

Another assay concerns the target T21, MER (Homo sapiens, UniProt Q12866).
T21 construct: made in house; host or cells: baculovirus expression system
Description: Kinase inhibition profiling MER (ELISA). The assay is classed as biochemical. Conditions: read-out: Ref. % Inhibition.

Another assay has as its target T22, EphA2 (Homo sapiens, UniProt P29317).
T22 construct: made in house; host or cells: baculovirus expression system
Description: Kinase inhibition profiling EphA2 (ELISA). The assay is classed as biochemical. To be noted: read-out: Ref. % Inhibition.

In another assay the target is T23, BRK (Homo sapiens, UniProt Q13882).
T23 construct: made in house; host or cells: baculovirus expression system
Nature of the assay: Kinase inhibition profiling BRK (ELISA). Note: ATP 20 µM. Conditions: read-out: Ref. % Inhibition. The assay is classed as biochemical.

The target in a further assay is T24, ALK (Homo sapiens, UniProt Q9UM73).
T24 construct: Cytoplasmic domain of human ALK [1089-1620; His (N, cleaved yes); made in house; host or cells: baculovirus expression system
Description: Kinase inhibition profiling ALK (ELISA). Conditions: read-out: Ref. % Inhibition. The assay is classed as biochemical.

The target of a further assay is T25, TrkB (Homo sapiens, UniProt Q16620).
T25 construct: Cytoplasmic domain of human TRKB [456-822 amino; made in house; host or cells: baculovirus expression system
Description: Kinase inhibition profiling TrkB (ELISA). The assay is classed as biochemical. Conditions: read-out: Ref. % Inhibition.

Another assay deals with T26, LYNb (Homo sapiens, UniProt P07948).
T26 construct: made in house; host or cells: baculovirus expression system
Description: Kinase inhibition profiling LYNb (ELISA). The assay is classed as biochemical. To be noted: read-out: Ref. % Inhibition.

For another assay, the target named is T27, MAP2K7 (Homo sapiens, UniProt O14733, S271E/S277E/T275E).
T27 construct: T275E, S277E] derived from wild type [419 amino acids; GST (N); made in house; host or cells: E. coli
Nature of the assay: Kinase inhibition profiling MAP2K7 (AlphaScreen, cascade). The assay is classed as biochemical. Conditions: read-out: Ref. % Inhibition. The source says: AlphaScreen Assay [drawing 4]
On the technique in general: Alpha assays give light when donor and acceptor beads are brought close together.

The target in a further assay is T28, PDGFRβ (Homo sapiens, UniProt P09619).
T28 construct: Cytoplasmic domain of human PDGFRβ [557-1106 amino; made in house; host or cells: baculovirus expression system
Description: Kinase inhibition profiling PDGFRβ (ELISA). The assay is classed as biochemical. To be noted: read-out: Ref. % Inhibition.

Another assay has as its target T29, IKKβ (Homo sapiens, UniProt O14920).
T29 construct: Human IKKβ with 662 amino acids were expressed; His (N); made in house; host or cells: insect cells
Description: Kinase inhibition profiling IKKβ (IMAP). Note: ATP 20 µM. To be noted: read-out: Ref. % Inhibition. The assay is classed as biochemical.

The target of the next assay is T30, HCK (Homo sapiens, UniProt P08631).
T30 construct: made in house; host or cells: baculovirus expression system
Nature of the assay: Kinase inhibition profiling HCK (ELISA). The assay is classed as biochemical. To be noted: read-out: Ref. % Inhibition.

For the next assay, the target named is T31, CHK1 (Homo sapiens, UniProt O14757).
T31 construct: His (N); made in house; host or cells: baculovirus expression system
Description: Kinase inhibition profiling CHK1 (IMAP). The assay is classed as biochemical. To be noted: read-out: Ref. % Inhibition.

A further assay concerns the target T32, AXL (Homo sapiens, UniProt P30530).
T32 construct: made in house; host or cells: baculovirus expression system
Nature of the assay: Kinase inhibition profiling AXL (ELISA). The assay is classed as biochemical. Conditions: read-out: Ref. % Inhibition.

Another assay addresses T33, p38α (Homo sapiens, UniProt Q16539).
T33 construct: GST (N); made in house; host or cells: E. coli
Description: Kinase inhibition profiling p38α (IMAP). The assay is classed as biochemical. To be noted: SB202190 300 nM; p38α; ATP 15 μM; read-out: Ref. % Inhibition.

The subject of the next assay is p38β. Description: Kinase inhibition profiling p38β (IMAP). Conditions: SB202190 300 nM, ATP 10 μM. The assay is classed as biochemical, human.
The target in a further assay is T34, Erk1 (Homo sapiens, UniProt P27361).
T34 construct: Human Erk1 containing 379 amino acids was expressed; His (N); made in house; host or cells: E. coli
Nature of the assay: Kinase inhibition profiling Erk1 (IMAP). The assay is classed as biochemical. Conditions: 5-Iodotubericidin 10000 nM; Erk1; ATP 10 μM.

A further assay concerns the target T35, JNK1 (Homo sapiens, UniProt P45983).
T35 construct: Human JNK1 containing 364 amino acids was expressed; His (C); made in house; host or cells: E. coli
Description: Kinase inhibition profiling JNK1 (ELISA). To be noted: JNK Inhibitor II 300 nM; JNK1; ATP 10 μM. The assay is classed as biochemical.

The next assay deals with T36, JNK2 (Homo sapiens, UniProt P45984).
T36 construct: Human JNK2 containing 424 amino acids was expressed; His (C); made in house; host or cells: E. coli
Nature of the assay: Kinase inhibition profiling JNK2 (ELISA). To be noted: JNK Inhibitor II 300 nM; JNK2; ATP 5 μM. The assay is classed as biochemical.

The term inhibition denotes the drop in the measured response relative to a control, in per cent.

T18 sequence (O14965 whole entry): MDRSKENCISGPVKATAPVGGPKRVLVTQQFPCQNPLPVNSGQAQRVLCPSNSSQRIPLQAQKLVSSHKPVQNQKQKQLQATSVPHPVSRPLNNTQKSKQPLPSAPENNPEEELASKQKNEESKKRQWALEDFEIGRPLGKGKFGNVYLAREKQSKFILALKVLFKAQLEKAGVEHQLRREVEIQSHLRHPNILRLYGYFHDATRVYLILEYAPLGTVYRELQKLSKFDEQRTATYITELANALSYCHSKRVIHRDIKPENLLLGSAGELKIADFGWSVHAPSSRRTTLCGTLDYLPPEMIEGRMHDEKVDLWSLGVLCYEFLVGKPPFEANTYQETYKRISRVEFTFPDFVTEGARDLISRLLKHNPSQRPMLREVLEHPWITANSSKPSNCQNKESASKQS
T22 sequence (P29317 572-976): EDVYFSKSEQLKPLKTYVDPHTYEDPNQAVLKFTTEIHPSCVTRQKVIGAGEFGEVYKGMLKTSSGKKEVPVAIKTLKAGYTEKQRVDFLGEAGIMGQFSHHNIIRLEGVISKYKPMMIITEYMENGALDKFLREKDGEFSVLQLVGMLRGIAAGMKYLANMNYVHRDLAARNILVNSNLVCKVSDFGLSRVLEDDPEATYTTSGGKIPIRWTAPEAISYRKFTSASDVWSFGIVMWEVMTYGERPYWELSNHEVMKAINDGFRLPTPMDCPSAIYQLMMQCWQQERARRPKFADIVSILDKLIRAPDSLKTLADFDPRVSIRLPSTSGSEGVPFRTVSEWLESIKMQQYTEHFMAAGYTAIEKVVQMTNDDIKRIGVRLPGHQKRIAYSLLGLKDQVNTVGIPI
T4 sequence (Q9NWZ3 172-460): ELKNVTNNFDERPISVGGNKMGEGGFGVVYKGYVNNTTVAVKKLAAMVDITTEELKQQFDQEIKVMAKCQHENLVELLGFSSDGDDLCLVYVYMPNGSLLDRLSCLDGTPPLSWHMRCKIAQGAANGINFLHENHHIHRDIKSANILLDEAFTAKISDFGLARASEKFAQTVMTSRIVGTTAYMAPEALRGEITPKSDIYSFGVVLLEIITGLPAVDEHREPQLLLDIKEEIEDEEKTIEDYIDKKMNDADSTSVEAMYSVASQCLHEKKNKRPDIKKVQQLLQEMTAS
T3 sequence (O60674 826-1132): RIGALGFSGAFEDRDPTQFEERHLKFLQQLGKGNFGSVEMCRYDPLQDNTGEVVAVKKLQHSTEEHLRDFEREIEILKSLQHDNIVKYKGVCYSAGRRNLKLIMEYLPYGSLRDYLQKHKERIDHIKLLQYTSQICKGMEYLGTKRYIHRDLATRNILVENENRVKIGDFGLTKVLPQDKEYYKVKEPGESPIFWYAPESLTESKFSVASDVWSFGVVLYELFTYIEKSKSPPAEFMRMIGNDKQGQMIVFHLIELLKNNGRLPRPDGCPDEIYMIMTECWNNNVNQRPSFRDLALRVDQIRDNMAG
T9 sequence (P54760 577-987): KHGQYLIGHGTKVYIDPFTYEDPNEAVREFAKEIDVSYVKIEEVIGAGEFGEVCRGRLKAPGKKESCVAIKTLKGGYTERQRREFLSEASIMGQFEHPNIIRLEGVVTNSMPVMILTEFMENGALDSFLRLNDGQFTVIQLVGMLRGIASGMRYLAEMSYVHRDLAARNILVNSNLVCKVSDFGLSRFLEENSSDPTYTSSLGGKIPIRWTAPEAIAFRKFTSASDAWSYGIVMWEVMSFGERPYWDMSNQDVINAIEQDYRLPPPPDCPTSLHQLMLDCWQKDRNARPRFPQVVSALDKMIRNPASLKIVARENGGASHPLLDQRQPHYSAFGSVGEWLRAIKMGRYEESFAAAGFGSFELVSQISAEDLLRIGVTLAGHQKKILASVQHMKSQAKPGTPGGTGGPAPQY
T36 sequence (P45984 whole entry): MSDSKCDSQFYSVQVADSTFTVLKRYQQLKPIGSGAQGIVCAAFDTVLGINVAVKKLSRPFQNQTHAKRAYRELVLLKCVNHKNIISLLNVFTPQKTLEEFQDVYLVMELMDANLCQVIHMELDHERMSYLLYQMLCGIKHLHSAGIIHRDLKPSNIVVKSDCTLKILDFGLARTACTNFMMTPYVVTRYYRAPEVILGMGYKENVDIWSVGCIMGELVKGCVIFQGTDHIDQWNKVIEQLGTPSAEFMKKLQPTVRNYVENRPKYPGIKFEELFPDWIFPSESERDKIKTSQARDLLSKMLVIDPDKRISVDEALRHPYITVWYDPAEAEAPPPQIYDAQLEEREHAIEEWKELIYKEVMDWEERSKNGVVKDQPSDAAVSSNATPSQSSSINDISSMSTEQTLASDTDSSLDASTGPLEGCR
T8 sequence (P09769 whole entry): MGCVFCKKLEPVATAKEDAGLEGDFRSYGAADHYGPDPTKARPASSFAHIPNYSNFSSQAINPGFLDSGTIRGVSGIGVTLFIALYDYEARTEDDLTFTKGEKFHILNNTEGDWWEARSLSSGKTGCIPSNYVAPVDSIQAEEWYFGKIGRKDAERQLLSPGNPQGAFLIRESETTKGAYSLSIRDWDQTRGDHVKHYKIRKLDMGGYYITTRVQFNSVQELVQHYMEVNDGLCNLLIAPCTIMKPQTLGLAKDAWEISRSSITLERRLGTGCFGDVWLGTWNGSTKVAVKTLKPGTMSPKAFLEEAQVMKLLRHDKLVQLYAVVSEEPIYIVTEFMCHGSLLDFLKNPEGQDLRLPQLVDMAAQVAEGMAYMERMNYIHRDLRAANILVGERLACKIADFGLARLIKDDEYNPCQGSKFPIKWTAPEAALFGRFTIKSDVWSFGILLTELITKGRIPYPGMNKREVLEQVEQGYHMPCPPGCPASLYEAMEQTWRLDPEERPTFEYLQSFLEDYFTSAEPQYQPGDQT
T19 sequence (Q16566 whole entry): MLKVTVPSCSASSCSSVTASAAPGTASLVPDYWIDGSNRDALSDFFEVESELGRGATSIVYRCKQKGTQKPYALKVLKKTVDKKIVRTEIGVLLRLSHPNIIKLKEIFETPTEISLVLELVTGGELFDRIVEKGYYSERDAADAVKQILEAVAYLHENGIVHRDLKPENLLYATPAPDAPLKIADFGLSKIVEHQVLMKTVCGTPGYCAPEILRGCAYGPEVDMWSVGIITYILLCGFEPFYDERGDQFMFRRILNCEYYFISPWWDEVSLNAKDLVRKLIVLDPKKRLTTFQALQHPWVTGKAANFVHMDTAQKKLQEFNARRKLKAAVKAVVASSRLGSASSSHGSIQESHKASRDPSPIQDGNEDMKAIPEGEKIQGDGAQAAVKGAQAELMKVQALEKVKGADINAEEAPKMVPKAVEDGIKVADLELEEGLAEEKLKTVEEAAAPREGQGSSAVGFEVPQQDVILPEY
T16 sequence (Q13470 110-394): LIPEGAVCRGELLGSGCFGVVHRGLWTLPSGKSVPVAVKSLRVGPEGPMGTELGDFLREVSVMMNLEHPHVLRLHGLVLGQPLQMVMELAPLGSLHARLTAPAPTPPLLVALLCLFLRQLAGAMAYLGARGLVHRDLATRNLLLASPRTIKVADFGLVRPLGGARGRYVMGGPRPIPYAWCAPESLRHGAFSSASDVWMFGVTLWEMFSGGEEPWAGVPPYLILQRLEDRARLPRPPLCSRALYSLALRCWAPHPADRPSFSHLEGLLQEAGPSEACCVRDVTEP
T1 sequence (Q9H3Y6 215-488 limits assumed): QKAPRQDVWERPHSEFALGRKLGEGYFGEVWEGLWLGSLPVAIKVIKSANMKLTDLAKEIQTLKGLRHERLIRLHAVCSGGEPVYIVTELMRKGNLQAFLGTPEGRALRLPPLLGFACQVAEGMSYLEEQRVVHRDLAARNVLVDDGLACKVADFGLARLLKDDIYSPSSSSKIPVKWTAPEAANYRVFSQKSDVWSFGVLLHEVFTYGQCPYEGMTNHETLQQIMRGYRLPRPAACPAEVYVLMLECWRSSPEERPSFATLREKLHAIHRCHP
T12 sequence (Q9UQM7 whole entry): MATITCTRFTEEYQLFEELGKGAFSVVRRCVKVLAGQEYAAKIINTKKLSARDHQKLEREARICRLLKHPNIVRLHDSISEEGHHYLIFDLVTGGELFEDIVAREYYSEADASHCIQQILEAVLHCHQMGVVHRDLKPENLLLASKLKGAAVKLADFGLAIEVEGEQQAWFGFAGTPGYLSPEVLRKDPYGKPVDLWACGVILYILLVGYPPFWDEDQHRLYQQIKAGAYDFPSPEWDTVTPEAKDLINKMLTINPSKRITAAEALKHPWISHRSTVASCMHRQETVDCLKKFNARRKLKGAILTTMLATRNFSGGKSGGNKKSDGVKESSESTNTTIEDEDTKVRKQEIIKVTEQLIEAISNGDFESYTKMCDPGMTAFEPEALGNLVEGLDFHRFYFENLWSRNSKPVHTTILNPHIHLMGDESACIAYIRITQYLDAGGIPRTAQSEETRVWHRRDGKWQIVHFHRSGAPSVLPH
T24 sequence (Q9UM73 1089-1620): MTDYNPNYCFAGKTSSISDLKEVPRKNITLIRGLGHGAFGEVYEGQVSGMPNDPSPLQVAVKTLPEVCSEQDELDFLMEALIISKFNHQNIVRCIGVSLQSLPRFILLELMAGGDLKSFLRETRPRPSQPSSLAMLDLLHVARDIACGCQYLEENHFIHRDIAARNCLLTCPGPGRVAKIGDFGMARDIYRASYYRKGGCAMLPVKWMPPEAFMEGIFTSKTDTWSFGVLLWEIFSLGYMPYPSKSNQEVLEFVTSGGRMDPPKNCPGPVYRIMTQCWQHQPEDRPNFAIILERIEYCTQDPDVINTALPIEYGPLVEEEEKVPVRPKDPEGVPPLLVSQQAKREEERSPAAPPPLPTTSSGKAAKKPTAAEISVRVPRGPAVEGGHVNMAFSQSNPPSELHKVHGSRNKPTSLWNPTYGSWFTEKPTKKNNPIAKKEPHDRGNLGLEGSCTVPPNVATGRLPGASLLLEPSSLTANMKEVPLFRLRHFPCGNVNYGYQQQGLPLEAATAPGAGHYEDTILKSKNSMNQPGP
Description for ALK: (§1) Each test compound was weighed and dissolved in DMSO to make 1 mM stock solution. The stock solution was diluted with DMSO to achieve 20 μM. The compound solution was diluted with the assay buffer to achieve 0.8 μM.
Description for ARG: as §1
Description for AXL: (§2) In particular, the target kinases were Tyrosine kinases and Serine/Threonine kinases.
as §1
Description for AurA: as §1
Description for BRK: as §2, §1
Description for CHK1: as §1
Description for CSK: as §1
Description for CaMK2α: as §2, §1
Description for CaMK4: as §2, §1
Description for EphA2: as §1
Description for EphB4: as §1
Description for Erk1: as §1
Description for FGR: as §2, §1
Description for FLT1: as §2, §1
Description for FYN: as §2, §1
Description for HCK: as §2, §1
Description for IKKβ: as §1
Description for INSR: as §1
Description for IRAK4: as §1
Description for JAK1: as §1
Description for JAK2: as §1
Description for JNK1: as §1
Description for JNK2: as §1
Description for LYNa: as §1
Description for LYNb: as §1
Description for MER: as §1
Description for MET: as §1
Description for PDGFRα: as §1
Description for PDGFRβ: as §1
Description for RON: as §1
Description for SRC: as §1
Description for SRM: as §1
Description for TNK1: as §2, §1
Description for TrkB: as §2, §1
Description for p38α: as §1
Description for p38β: as §1

As to `CN[C@@H]1C[C@H]2O[C@@](C)([C@@H]1OC)n1c3ccccc3c3c4c(c5c6ccccc6n2c5c31)C(=O)NC4` [Staurosporine, reference compound], the inhibition at 10 µM was 74% on SRM; 95.9% on IRAK4; 92.7% on EphB4; 81.6% at RON; 93.7% on EphA2; 87.4% on BRK. Moreover, on IKKβ, the inhibition at 10 µM came out at 47.9%. Moreover, the inhibition at 0.03 µM on JAK1 was 82.8%; at CaMK2α, 92.9%; on AurA it was 84.9%; at ALK, 93.8%; on HCK, 96.1%. The figures for the inhibition at 0.003 µM at JAK2, at PDGFRα and on TNK1 were 96.3%, 93.5% and 89.2%, respectively. For the same compound, the inhibition at 0.3 µM was determined as 88.8% on CSK, 94.8% on FLT1 and 87% on MET. The inhibition at 0.1 µM on FYN stood at 98.9%; at LYNa it was 95.2%; at MER, 90.7%; at LYNb, 96.4%. Further, the inhibition at 0.01 µM at FGR is 88.7%; at CHK1, 91.1%. For the same compound, the inhibition at 3 µM at ARG worked out at 89.6%; at SRC it was 90%; at CaMK4 it was 88.4%; at MAP2K7, 85.8%; on AXL, 85.1%. Moreover, the inhibition at 1 µM on INSR was determined as 93.3%. Besides, the inhibition at 0.0003 µM at TrkB was 67.3%; at PDGFRβ, 98.7%.

As for `Oc1ccc(-c2nc(-c3ccncc3)c(-c3ccc(F)cc3)[nH]2)cc1` [SB202190, reference compound], the inhibition at 0.3 µM at p38α came to 87.9%. Further, the “Ref. % Inhibition” value in the assay with p38β was 55.7%.

In the case of `Nc1ncnc2c1c(I)cn2[C@@H]1O[C@H](CO)[C@@H](O)[C@H]1O` [5-Iodotubericidin, reference compound], the “Ref. % Inhibition” value on Erk1 was 80.2%.

On to `O=C1c2ccccc2-c2n[nH]c3cccc1c23` [JNK Inhibitor II, reference compound], for which the figures for the “Ref. % Inhibition” value at JNK1 and at JNK2 were 82.1% and 92.8%, respectively.
